Reference: patent US20230348473A1, “SUBSTITUTED PYRIDINES AS PARP1 INHIBITORS” (Xinthera, Inc., priority 2022, published 2023)
Values belong to the compound of their own block, whether it stands above or below them.

Experiments:
[1] = molecular target: PARP2 (Homo sapiens (Human), UniProt Q9UGN5); assay: Biochemical fluorescence polarization (FP) assay, PARPi-FL displacement, PARP2; type: binding; details: 20 nM protein, 3 nM PARPi-FL, 4 h
Description: (§1) To characterize our compounds, we utilized an assay measuring the displacement of a commercially available fluorescently labeled PARP 1/2 inhibitor (PARPi-FL, Tocris Biosciences, #6461) as exemplified in assays performed in WO2014/064149 and WO2021/013735A1. The assay was performed utilizing the following method: Compounds were dissolved in DMSO an Echo550 liquid handler was utilized to make serial dilations in the desired concentration range in Optiplate-384F plates. 100% DMSO was used for the high (with protein) and low (without protein) control samples. 20 nL of compound or DMSO alone was added to individual assay plate wells. […] The PARPi-FL was then added at a final concentration of 3 nM. The assay plate is centrifuged at 1000 rpm for 1 min and incubated for 4 h at room temperature. […] XLFit (equation 201) is used to calculate a reported IC50 for each compound.

[2] = molecular target: PARP1 (Homo sapiens (Human), UniProt P09874); assay: Biochemical fluorescence polarization (FP) assay, PARPi-FL displacement, PARP1; type: binding; details: 20 nM protein, 3 nM PARPi-FL, 4 h
PARP1, sequence (P09874 whole entry): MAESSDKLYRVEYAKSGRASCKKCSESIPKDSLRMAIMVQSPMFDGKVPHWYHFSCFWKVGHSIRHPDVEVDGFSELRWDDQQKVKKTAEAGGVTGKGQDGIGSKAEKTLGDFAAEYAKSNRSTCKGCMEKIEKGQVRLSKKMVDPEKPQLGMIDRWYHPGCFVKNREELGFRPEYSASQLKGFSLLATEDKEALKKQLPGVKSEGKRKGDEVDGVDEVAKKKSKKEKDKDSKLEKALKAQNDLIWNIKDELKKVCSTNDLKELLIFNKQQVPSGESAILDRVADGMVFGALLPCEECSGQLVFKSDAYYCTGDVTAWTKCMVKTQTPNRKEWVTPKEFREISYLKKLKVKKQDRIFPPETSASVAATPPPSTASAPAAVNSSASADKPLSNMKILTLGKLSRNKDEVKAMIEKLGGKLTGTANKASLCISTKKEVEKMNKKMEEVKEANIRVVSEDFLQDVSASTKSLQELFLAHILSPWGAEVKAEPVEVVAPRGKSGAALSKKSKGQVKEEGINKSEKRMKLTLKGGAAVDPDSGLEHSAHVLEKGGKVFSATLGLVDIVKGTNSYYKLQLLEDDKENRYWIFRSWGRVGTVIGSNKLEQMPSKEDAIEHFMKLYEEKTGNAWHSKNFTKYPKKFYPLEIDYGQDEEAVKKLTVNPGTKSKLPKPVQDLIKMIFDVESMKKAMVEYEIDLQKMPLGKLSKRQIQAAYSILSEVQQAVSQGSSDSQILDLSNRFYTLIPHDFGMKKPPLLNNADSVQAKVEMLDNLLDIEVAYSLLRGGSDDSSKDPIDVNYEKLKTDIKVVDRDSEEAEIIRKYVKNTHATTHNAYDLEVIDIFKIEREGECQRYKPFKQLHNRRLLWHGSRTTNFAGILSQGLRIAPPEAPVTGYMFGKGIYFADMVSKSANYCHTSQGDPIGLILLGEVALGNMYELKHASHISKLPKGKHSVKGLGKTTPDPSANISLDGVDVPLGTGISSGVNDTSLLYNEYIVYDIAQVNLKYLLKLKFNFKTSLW
Description: as §1

[3] = In vivo determination of rat Kp,uu; details: male Sprague-Dawley rats, oral gavage, Kp*(fraction unbound in brain homogenate/fraction unbound in plasma)
Description: The equilibrium dialysis method was used to investigate the in vitro binding of test articles and reference compounds to plasma proteins. Plasma samples containing 5 μM test article or blank dialysis buffer solution (PBS, pH 7.4) were added to separate chambers of the dialysis wells of the High Throughput equilibrium Dialysis (HTD) device. The dialysis plate was sealed and placed in an incubator at 37° C. with 5% CO2 with shaking at approximately 100 rpm for 6 hours. All experiments were performed in duplicable. Ketoconazole (5 μM) was used as the reference compound. After incubation, the seal was removed, and 50 μL of post-dialysis samples were pipetted from both buffer and plasma chambers into fresh 96-well plates. Samples were equimatrilyzed by either addition of blank plasma to buffer samples or the addition of blank buffer to plasma samples. Subsequently, 400 μL (4 volumes) of acetonitrile containing internal were added to all samples to precipitate proteins prior to analysis by UPLC-MS/MS to determine the relative concentrations of test articles. The unbound fractions in plasma were calculated using the concentrations of test articles in buffer and plasma samples according to the following equation: […]
The equilibrium dialysis method was used to investigate the in vitro binding of test articles and reference compounds to rodent brain homogenate. Brains collected from naïve animals were weighed and homogenized in 4 volumes of PBS, pH 7.4. […] The unbound fractions in diluted brain homogenate were calculated using the concentrations of test articles in buffer and homogenate samples according to the following equation: […]
Prior to bioanalysis, plasma and brain samples were extracted with 4 volumes of acetonitrile containing internal standard and centrifuged for 15 minutes. […] Plasma and brain homogenate drug concentrations were determined against calibration curves generated by spiking blank rat plasma or brain homogenate with drug across an appropriate concentration range. […]

[4] = Caco-2 bidirectional permeability; type: in vitro ADME; details: human, 5 μM, 2 hours
Description: Following a 1-hr. equilibration period in cell culture medium maintained at 37° C. in an incubator containing a 5% CO2 atmosphere at 95% relative humidity, Corning 96-well HTS Transwell® permeable support plates were seeded with 34,300 Caco-2 cells (ATCC) per well. Following seeding, plates were cultured for 14-18 days with cell culture medium replacement every other day beginning no later than 24 hr. after plating. Monolayer barrier integrity was monitored during the culture period using transepithelial electrical resistance (TEER) measurements taken with a Millicell Epithelial Volt-Ohm system. Caco-2 monolayers were considered ready for use when the TEER value >230 ohm·cm^2. Working stocks of individual test articles were prepared at a concentration of 5 μM by diluting 1 mM stocks prepared in DMSO into 10 mM HEPES. Prior to conducting the assay, Caco-2 plates were washed twice with prewarmed 10 mM HEPES and then equilibrated in 10 mM HEPES for 30 min. at 37° C. Following equilibration, test article flux was tested bidirectionally (in both the apical-to-basolateral and basolateral-to-apical directions) by adding test article working stocks to either the apical or basolateral chambers. Blank 10 mM HEPES was added to the opposite sides. Plates were then incubated at 37° C. for 2 hours. At the end of the incubation, aliquots from both sides of each monolayer were quenched with 4 volumes of ACN containing internal standards. Following a centrifugation step, supernatants were diluted with pure water prior to analysis via LC-MS/MS.
Apparent permeability (Papp, ×10^−6 cm/s) was calculated for all transport assays using the following equation: […]
Where: Papp is apparent permeability (×10^−6 cm/s). • dQ/dt is the rate of drug transport (pmol/s). • A is the surface area of the membrane (cm^2). • D0 is the initial donor concentration (nM; pmol/cm^3).
Efflux ratio was determined by calculating the ratio of the Papp in the basolateral-to-apical direction to the Papp in the apical-to-basolateral direction using the following equation: […]
Where: Papp (B-to-A) is the apparent permeability in the basolateral-to-apical direction. • Papp (A-to-B) is the apparent permeability in the apical-to-basolateral direction.

[5] = hHEP metabolic stability, predicted human hepatic clearance; type: in vitro ADME; details: well-stirred model, 1 μM
Description: Working stocks of individual test articles were prepared at concentrations of 100 μM by diluting 10 mM stocks prepared in DMSO 100-fold (v:v) into ACN/H2O (50/50, v:v). Human cryopreserved hepatocytes were thawed in a 37° C. water bath in <2 min., suspended in thawing media, and then centrifuged at 100×g for 10 min. Thawing media was aspirated, and pelleted hepatocytes were resuspended into incubation media at 1.5×10^6 cells/mL. Cell viability was determined using an Acridine Orange/Propidium Iodine stain, and hepatocytes were further diluted with incubation media to 0.5×10^6 viable cells/mL. Hepatocyte aliquots of 198 μL were added to wells of a 96-well plate, and test article incubations were initiated by the addition of 2 μL of 100 μM working stocks. Plates were incubated at 37° C. in a 5% CO2 atmosphere at 95% relative humidity on an orbital shaker at 300 rpm. Incubations were performed in duplicate. Following incubation, aliquots of individual reactions were terminated by addition of ACN containing internal standards at 0, 30-, 60-, 90-, 120-, and 240-min. Precipitated protein was pelleted via refrigerated centrifugation. Supernatants were diluted into an equal volume of pure water and mixed well prior to analysis via LC-MS/MS. In vitro intrinsic clearances (CLint) in μL/min/10^6 cells were determined for each incubation from calculated in vitro half-lives determined using a standard log-linear regression approach. In vitro CLint values were scaled up using the following physiological scaling factors: 99×10^6 cells/g human liver and 25.7 g human liver/kg body weight.

[6] = HLM metabolic stability, predicted human hepatic clearance; type: in vitro ADME; details: well-stirred model, 1 μM
Description: Working stocks of individual test articles were prepared at a concentration of 100 μM by diluting 10 mM stocks prepared in DMSO 100-fold (v:v) into ACN. Thawed hepatic microsomes were suspended in 100 mM potassium phosphate buffer, pH 7.4 to a microsomal protein concentration of 0.562 mg/mL. Diluted microsomes were combined with a solution of 10 mM NADPH, and the mixture was pre-warmed to 37° C. for 8 min. Reactions were initiated by addition of the test article working stocks to achieve a final test article concentration of 1 μM. Final microsomal protein and NADPH concentrations were 0.5 mg/mL and 1 mM, respectively. Incubations containing NADPH were run in duplicate. Test article losses mediated by non-CYP mechanisms were evaluated in a parallel set of incubations run in the absence of NADPH. Incubations lacking NADPH consisted of 1 replicate per test article. Following incubation in a 37° C. water bath, aliquots of individual reactions were quenched with cold ACN containing internal standards at […], 15-, 30-, 60-, 90-, and 120-min. Precipitated protein was pelleted via refrigerated centrifugation. Supernatants were diluted into an equal volume of pure water and mixed well prior to analysis via LC-MS/MS. In vitro intrinsic clearances (CLint) in μL/min/mg were determined for each incubation from calculated in vitro half-lives determined using a standard log-linear regression approach. In vitro CLint values were scaled up using the following physiological scaling factors: 40 mg microsomal protein/g human liver and 25.7 g human liver/kg body weight.

[7] = system: DLD-1 parental cells; assay: Cell growth inhibition assay (CellTiter-Glo), DLD-1 parental; type: cell-based; details: Homo sapiens, DLD-1, 168 h; 7 days, CellTiter Glo 2.0
Source text: The objective of this study is to evaluate the effect of compound disclosed herein on cell proliferation through the cell viability assay in DLD-1 BRCA2(−/−) and parental isogenic pair and MDA-MB-436 (mutated BRCA1) cell lines. The CellTiter-Glo (CTG) based cell viability assay is designed to determine the number of viable cells in the culture because of compound effect, by quantifying ATP, which indicates the presence of metabolically active cells.
DLD-1 BRCA2(−/−) and parental isogenic pair were cultured in RPMI 1640 supplemented with 10% fetal bovine serum (FBS), and MDA-MB-436 cells were cultured in DMEM supplemented with 10% FBS. Both are culture at 37° C. with 5% CO2. Invention compounds were distributed to the 384 well plate (Corning, 3764) using Echo acoustic liquid handler to form a 1:3 serially diluted final concentration with top dose of 10 or 30 μM. The cells were seeded into the plate in the density of 50 cells/well (DLD-1 parental), 200 cells/well (DLD-1 BRCA2−/−), or 500 cells/well (MDA-MB-436). After a short spun, the cells were cultured in a well moisturized incubator at 37° C. with 5% CO2 for 7 days without disturbance. The cell viability was measured by CellTiter Glo 2.0 assay kit (Promega, G9243), and growth inhibition rate was calculated and plotted against final compound concentration, and the data were fitted in Xfit to generate IC50.

PARP2, sequence (Q9UGN5 whole entry): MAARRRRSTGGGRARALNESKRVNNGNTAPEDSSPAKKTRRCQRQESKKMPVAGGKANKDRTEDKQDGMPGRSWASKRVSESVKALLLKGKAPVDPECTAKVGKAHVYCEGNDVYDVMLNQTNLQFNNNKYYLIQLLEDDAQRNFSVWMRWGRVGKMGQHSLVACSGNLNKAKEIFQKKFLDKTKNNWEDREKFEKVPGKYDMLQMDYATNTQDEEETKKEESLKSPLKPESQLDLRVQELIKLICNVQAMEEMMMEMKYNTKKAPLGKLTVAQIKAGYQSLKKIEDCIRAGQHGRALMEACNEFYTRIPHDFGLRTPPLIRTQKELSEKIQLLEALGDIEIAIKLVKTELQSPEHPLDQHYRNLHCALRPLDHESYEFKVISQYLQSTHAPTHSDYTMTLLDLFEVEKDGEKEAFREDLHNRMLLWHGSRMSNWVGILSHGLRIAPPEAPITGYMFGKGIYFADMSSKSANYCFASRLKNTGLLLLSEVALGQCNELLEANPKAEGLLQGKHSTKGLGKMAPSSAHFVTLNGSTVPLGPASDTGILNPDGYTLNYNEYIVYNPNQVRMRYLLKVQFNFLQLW

- IC50 [1]: > 100 µM
- IC50 [2]: 0.0081 µM
- Rat Kpuu [3]: 1.0
SMILES: CNC(=O)c1ccc(N2CCN(Cc3ccc4c([nH]c(=O)c5ccnn54)c3F)CC2)c(F)n1 [Example 1, 6-fluoro-5-[4-({6-fluoro-4-oxo-5H-pyrazolo[1,5-a]quinoxalin-7-yl}methyl)piperazin-1-yl]-N-methylpyridine-2-carboxamide]

- Papp A→B at 2 h, 5 μM ([4]; apical-to-basolateral, read-out: Caco-2 AB): 20.5 ×10⁻⁶ cm/s
- Papp B→A at 2 h, 5 μM ([4]; basolateral-to-apical, read-out: Caco-2 BA): 28.1 ×10⁻⁶ cm/s
- HHEP Clh [5]: <3.3 mL/min/kg
- Rat Kpuu [3]: 0.65
- HLM Clh [6]: <4 mL/min/kg
SMILES: CNC(=O)c1ccc(N2CCN(Cc3ccc4c5c(c(=O)[nH]c4c3F)CCO5)CC2)c(F)n1 [Example 9, 6-fluoro-5-[4-({6-fluoro-4-oxo-2H,3H,5H-furo[3,2-c]quinolin-7-yl}methyl)piperazin-1-yl]-N-methylpyridine-2-carboxamide]

SMILES: [2H]C([2H])([2H])NC(=O)c1ccc(N2CCN(Cc3ccc4c5c(c(=O)[nH]c4c3F)CCO5)CC2)c(F)n1 [Example 22]
- EC50 [7]: > 30 µM

- Rat Kpuu [3]: 0.81
SMILES: [2H]C([2H])(c1ccc2c3c(c(=O)[nH]c2c1F)CCO3)N1CCN(c2ccc(C(=O)NC)nc2F)CC1 [Example 24]
